We go through twelve molecules from US20260166159A1, “KRAS G12D DEGRADATION AGENT, AND PREPARATION METHOD AND USE THEREFOR” (LEADINGTAC PHARMACEUTICAL (SHAOXING) CO., LTD., priority 2022, published 2026).

The target of experiment [1] is T1, Human KRAS G12D 6His-tagged (Homo sapiens, UniProt P01116, G12D).
T1 construct: purchased PerkinElmer
In words: KRAS-G12D/GTP binding assay (HTRF). Conditions: class symbols. The method in brief:
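HTRF kit format: 6His-tagged KRAS G12D incubated with compound (final 0.02-5000 nM, 0.5% DMSO), anti-6His Eu cryptate antibody and GTP Red reagent for 1 h at 25° C. 665/620 nm ratio versus control gave inhibition rates; IC50 by nonlinear fit.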
For orientation: In TR-FRET formats the signal depends on donor and acceptor labels being close together.

For another experiment, the system named is phosphorylated ERK. In words: KRAS G12D-mediated phosphorylated ERK inhibition assay (AlphaLISA), A427. It counts as cell-based. Conditions: Homo sapiens, A-427; A427 cells; class symbols; read-out: pERK (A427) IC50. Here is the method:
The relative amounts of phosphorylated ERK and total ERK in the samples were separately determined according to the test methods provided in the instructions of the AlphaLISA SureFire Ultra p-ERK 1/2 (Thr202/Tyr204) kit (PerkinElmer) and the AlphaLISA SureFire Ultra TotalERK 1/2 kit (PerkinElmer).
The experimental procedures for the assay of the phosphorylated ERK and total ERK were as follows: 10 μL of each sample was added to a 384-well plate (Greiner), and 5 μL of the prepared Acceptor Beads (PerkinElmer) mixed solution (containing 50× Acceptor Beads 615, Activation Buffer, and equal volumes of Reaction Buffer 1 and Reaction Buffer 2) was added to each well; and the plate was incubated at room temperature for 2 h. Then 5 μL of 1× Donor Beads (PerkinElmer) diluted with Dilution Buffer was added to each well, and the plate was incubated at room temperature overnight. After the incubation was completed, AlphaLISA signal values for the phosphorylated ERK and total ERK were separately measured on an EnVision microplate reader (PerkinElmer) in the AlphaScreen standard mode. The following formula was adopted: phosphorylated ERK correction value=phosphorylated ERK AlphaLISA signal value/total ERK AlphaLISA signal value. The relative ratio of the phosphorylated ERK for each sample was calculated. The percentage inhibition rates of the compounds on the phosphorylated ERK at each concentration were calculated by comparing the relative value of the phosphorylated ERK with that of the DMSO control well. Then non-linear curve fittings for logarithmic concentration-inhibition rate were performed by the GraphPad Prism 8 analysis software, and the IC50 values of the compounds on the inhibition of the phosphorylated ERK were obtained (Table 2).
(In general: Bead proximity is the source of the signal in Alpha formats.)

T1 sequence (P01116 1-188 isoform P01116-2 G12D): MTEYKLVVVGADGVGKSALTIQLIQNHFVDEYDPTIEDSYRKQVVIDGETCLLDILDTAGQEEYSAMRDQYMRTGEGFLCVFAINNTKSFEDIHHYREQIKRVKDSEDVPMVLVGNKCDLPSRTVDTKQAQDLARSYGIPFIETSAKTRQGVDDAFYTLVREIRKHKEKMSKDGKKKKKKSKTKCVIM

As to `C#Cc1c(F)ccc2cc(O)cc(-c3ncc4c(N5CC6CCC(C5)N6)nc(OCC5(CN6CCC(COCCC7CCN(C(=O)c8ccc(Cl)c(N9CCC(=O)NC9=O)c8)CC7)CC6)CC5)nc4c3F)c12` [Example 21, 1-(5-(4-(2-((1-((1-(((4-(3,8-diazabicyclo[3.2.1]octan-3-yl)-7-(8-ethynyl-7-fluoro-3-hydroxynaphthalen-1-yl)-8-fluoropyrido[4,3-d]pyrimidin-2-yl)oxy)methyl)cyclopropyl)methyl)piperidin-4-yl)methoxy)ethyl)piperidine-1-carbonyl)-2-chlorophenyl)dihydropyrimidine-2,4(1H,3H)-dione], the half-inhibitory concentration (IC50) (in experiment [1]; with phosphorylated ERK) was not above 50 nM each time.

For the molecule `C#Cc1c(F)ccc2cc(O)cc(-c3ncc4c(N5CC6CCC(C5)N6)nc(OCC(C)(C)CN5CCN(CCCC6CCN(C(=O)c7ccc(Cl)c(N8CCC(=O)NC8=O)c7)CC6)CC5)nc4c3F)c12` [Example 23, 1-(5-(4-(3-(4-(3-((4-(3,8-diazabicyclo[3.2.1]octan-3-yl)-7-(8-ethynyl-7-fluoro-3-hydroxynaphthalen-1-yl)-8-fluoropyrido[4,3-d]pyrimidin-2-yl)oxy)-2,2-dimethylpropyl)piperazin-1-yl)propyl)piperidine-1-carbonyl)-2-chlorophenyl)dihydropyrimidine-2,4(1H,3H)-dione], the half-maximal inhibitory concentration (IC50) was not above 50 nM in experiment [1] and 100 to 500 nM with phosphorylated ERK.

`Cc1ccc2[nH]ncc2c1-c1ncc2c(N3CC4CCC(C3)N4)nc(OCC3(CN4CCN(CC5CCC6(CC5)CCN(C(=O)c5ccc(Cl)c(N7CCC(=O)NC7=O)c5)CC6)CC4)CC3)nc2c1F` [Example 16, 1-(5-(9-((4-((1-(((4-(3,8-diazabicyclo[3.2.1]octan-3-yl)-8-fluoro-7-(5-methyl-1H-indazol-4-yl)pyrido[4,3-d]pyrimidin-2-yl)oxy)methyl)cyclopropyl)methyl)piperazin-1-yl)methyl)-3-azaspiro[5.5]undecane-3-carbonyl)-2-chlorophenyl)dihydropyrimidine-2,4(1H,3H)-dione]: the concentration for half-maximal inhibition (IC50) (in experiment [1]; in the experiment on phosphorylated ERK) was 1000 to 10000 nM in each case.

On to `CCc1cccc2cc(O)cc(-c3ncc4c(N5CC6CCC(C5)N6)nc(OCC5(CN6CCN(CC7CCC8(CC7)CCN(C(=O)c7ccc(OC)c(N9CCC(=O)NC9=O)c7)CC8)CC6)CC5)nc4c3F)c12` [Example 20, 1-(5-(9-((4-((1-(((4-(3,8-diazabicyclo[3.2.1]octan-3-yl)-7-(8-ethyl-3-hydroxynaphthalen-1-yl)-8-fluoropyrido[4,3-d]pyrimidin-2-yl)oxy)methyl)cyclopropyl)methyl)piperazin-1-yl)methyl)-3-azaspiro[5.5]undecane-3-carbonyl)-2-methoxyphenyl)dihydropyrimidine-2,4(1H,3H)-dione], for which the IC50 (in experiment [1]; in the experiment with phosphorylated ERK) was not above 50 nM in each case.

As to `C#Cc1c(F)ccc2cc(O)cc(-c3ncc4c(N5CC6CCC(C5)N6)nc(OCC(C)(C)CN5CCN(CC6CCC7(CC6)CCN(C(=O)c6ccc(OC)c(N8CCC(=O)NC8=O)c6)CC7)CC5)nc4c3F)c12` [Example 26, 1-(5-(9-((4-(3-((4-(3,8-diazabicyclo[3.2.1]octan-3-yl)-7-(8-ethynyl-7-fluoro-3-hydroxynaphthalen-1-yl)-8-fluoropyrido[4,3-d]pyrimidin-2-yl)oxy)-2,2-dimethylpropyl)piperazin-1-yl)methyl)-3-azaspiro[5.5]undecane-3-carbonyl)-2-methoxyphenyl)dihydropyrimidine-2,4(1H,3H)-dione], the figures for the 50% inhibitory concentration (IC50) (in experiment [1]; in the experiment on phosphorylated ERK) were 50 to 100 nM and not above 50 nM, respectively.

For `C#Cc1c(F)ccc2cc(O)cc(-c3ncc4c(N5CC6CCC(C5)N6)nc(OCC5(CN6CCN(CCC7CCC8(CC7)CCN(C(=O)c7ccc(Cl)c(N9CCC(=O)NC9=O)c7)CC8)CC6)CC5)nc4c3F)c12` [Example 18, 1-(5-(9-(2-(4-((1-(((4-(3,8-diazabicyclo[3.2.1]octan-3-yl)-7-(8-ethynyl-7-fluoro-3-hydroxynaphthalen-1-yl)-8-fluoropyrido[4,3-d]pyrimidin-2-yl)oxy)methyl)cyclopropyl)methyl)piperazin-1-yl)ethyl)-3-azaspiro[5.5]undecane-3-carbonyl)-2-chlorophenyl)dihydropyrimidine-2,4(1H,3H)-dione], the half-inhibitory concentration (IC50) (in experiment [1]; in the experiment on phosphorylated ERK) was not above 50 nM throughout.

Consider `C#Cc1c(F)ccc2cc(O)cc(-c3ncc4c(N5CC6CCC(C5)N6)nc(OCC5(CN6CCN(CCCC7CCN(C(=O)c8ccc(Cl)c(N9CCC(=O)NC9=O)c8)CC7)CC6)CC5)nc4c3F)c12` [Example 4, 1-(5-(4-(3-(4-((1-(((4-(3,8-diazabicyclo[3.2.1]octan-3-yl)-7-(8-ethynyl-7-fluoro-3-hydroxynaphthalen-1-yl)-8-fluoropyrido[4,3-d]pyrimidin-2-yl)oxy)methyl)cyclopropyl)methyl)piperazin-1-yl)propyl)piperidine-1-carbonyl)-2-chlorophenyl)dihydropyrimidine-2,4(1H,3H)-dione], for which the half-inhibitory concentration (IC50) (in experiment [1]; with phosphorylated ERK) was not above 50 nM each time.

Consider `C#Cc1c(F)ccc2cc(O)cc(-c3ncc4c(N5CC6CCC(C5)N6)nc(OCC5(CN6CCN(CCCC7CCC8(CC7)CCN(C(=O)c7ccc(Cl)c(N9CCC(=O)NC9=O)c7)CC8)CC6)CC5)nc4c3F)c12` [Example 7, 1-(5-(9-(3-(4-((1-(((4-(3,8-diazabicyclo[3.2.1]octan-3-yl)-7-(8-ethynyl-7-fluoro-3-hydroxynaphthalen-1-yl)-8-fluoropyrido[4,3-d]pyrimidin-2-yl)oxy)methyl)cyclopropyl)methyl)piperazin-1-yl)propyl)-3-azaspiro[5.5]undecane-3-carbonyl)-2-chlorophenyl)dihydropyrimidine-2,4(1H,3H)-dione], for which the IC50 (in experiment [1]; in the experiment with phosphorylated ERK) was not above 50 nM throughout.

Consider `C#Cc1c(F)ccc2cc(O)cc(-c3ncc4c(N5CC6CCC(C5)N6)nc(OCC5(CN6CCN(CCCCC7CCC8(CC7)CCN(C(=O)c7ccc(Cl)c(N9CCC(=O)NC9=O)c7)CC8)CC6)CC5)nc4c3F)c12` [Example 31, 1-(5-(9-(4-(4-((1-(((4-(3,8-diazabicyclo[3.2.1]octan-3-yl)-7-(8-ethynyl-7-fluoro-3-hydroxynaphthalen-1-yl)-8-fluoropyrido[4,3-d]pyrimidin-2-yl)oxy)methyl)cyclopropyl)methyl)piperazin-1-yl)butyl)-3-azaspiro[5.5]undecane-3-carbonyl)-2-chlorophenyl)dihydropyrimidine-2,4(1H,3H)-dione], for which the IC50 (in experiment [1]; in the experiment with phosphorylated ERK) was not above 50 nM each time.

Take `C#Cc1c(F)ccc2cc(O)cc(-c3ncc4c(N5CC6CCC(C5)N6)nc(OCC5(CN6CCN(CC7CCC8(CC7)CCN(C(=O)c7ccc(OC)c(N9CCC(=O)NC9=O)c7)CC8)CC6)CC5)nc4c3F)c12` [Example 14, 1-(5-(9-((4-((1-(((4-(3,8-diazabicyclo[3.2.1]octan-3-yl)-7-(8-ethynyl-7-fluoro-3-hydroxynaphthalen-1-yl)-8-fluoropyrido[4,3-d]pyrimidin-2-yl)oxy)methyl)cyclopropyl)methyl)piperazin-1-yl)methyl)-3-azaspiro[5.5]undecane-3-carbonyl)-2-methoxyphenyl)dihydropyrimidine-2,4(1H,3H)-dione]: the IC50 (in experiment [1]; with phosphorylated ERK) was not above 50 nM throughout.

In the case of `C#Cc1c(F)ccc2cc(O)cc(-c3ncc4c(N5CC6CCC(C5)N6)nc(OCC5(CN6CCN(CC7CCC8(CC7)CCN(C(=O)c7ccc(C)c(N9CCC(=O)NC9=O)c7)CC8)CC6)CC5)nc4c3F)c12` [Example 36, 1-(5-(9-((4-((1-(((4-(3,8-diazabicyclo[3.2.1]octan-3-yl)-7-(8-ethynyl-7-fluoro-3-hydroxynaphthalen-1-yl)-8-fluoropyrido[4,3-d]pyrimidin-2-yl)oxy)methyl)cyclopropyl)methyl)piperazin-1-yl)methyl)-3-azaspiro[5.5]undecane-3-carbonyl)-2-methylphenyl)dihydropyrimidine-2,4(1H,3H)-dione], the IC50 (in experiment [1]; with phosphorylated ERK) was not above 50 nM each time.

As to `C#Cc1c(F)ccc2cc(O)cc(-c3ncc4c(N5CC6CCC(C5)N6)nc(OCC5(CN6CCN(CC7CCC8(CC7)CCN(C(=O)c7ccc(Cl)c(N9CCC(=O)NC9=O)c7)CC8)CC6)CC5)nc4c3F)c12` [Example 6, 1-(5-(9-((4-((1-(((4-(3,8-diazabicyclo[3.2.1]octan-3-yl)-7-(8-ethynyl-7-fluoro-3-hydroxynaphthalen-1-yl)-8-fluoropyrido[4,3-d]pyrimidin-2-yl)oxy)methyl)cyclopropyl)methyl)piperazin-1-yl)methyl)-3-azaspiro[5.5]undecane-3-carbonyl)-2-chlorophenyl)dihydropyrimidine-2,4(1H,3H)-dione], the half-maximal inhibitory concentration (IC50) (in experiment [1]; in the experiment with phosphorylated ERK) was not above 50 nM in each case.

By IC50 is commonly meant the midpoint of a concentration-inhibition curve.
